From ChEMBL document CHEMBL3991601, “The target landscape of clinical kinase drugs” (Science, 2017)
Calls of active or inactive are those of the source. Rule as the data show it, for most assays here: actives have a measured Kd and inactives only a lower limit.

How the values were obtained:
[1] = biological target: Tyrosine-protein kinase ABL2 (Homo sapiens, UniProt P42684)
[2] = biological target: T1, Serine/threonine-protein kinase Nek3 (Homo sapiens, UniProt P51956)
T1 sequence (P51956 whole entry): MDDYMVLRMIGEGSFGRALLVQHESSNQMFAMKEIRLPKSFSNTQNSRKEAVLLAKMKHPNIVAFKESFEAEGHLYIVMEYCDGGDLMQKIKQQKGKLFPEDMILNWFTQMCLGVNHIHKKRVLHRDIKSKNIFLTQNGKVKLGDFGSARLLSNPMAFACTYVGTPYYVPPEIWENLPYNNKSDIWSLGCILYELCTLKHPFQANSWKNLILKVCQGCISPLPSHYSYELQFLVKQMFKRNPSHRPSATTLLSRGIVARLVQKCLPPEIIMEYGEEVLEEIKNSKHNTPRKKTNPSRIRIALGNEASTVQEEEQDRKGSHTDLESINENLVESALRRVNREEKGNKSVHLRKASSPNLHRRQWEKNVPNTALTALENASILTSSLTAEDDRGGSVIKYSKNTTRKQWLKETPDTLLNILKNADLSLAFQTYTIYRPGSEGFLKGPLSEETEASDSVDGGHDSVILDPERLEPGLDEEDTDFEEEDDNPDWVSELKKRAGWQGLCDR

[3] = biological target: T2, Serine/threonine-protein kinase ULK3 (Homo sapiens, UniProt Q6PHR2)
T2 sequence (Q6PHR2 whole entry): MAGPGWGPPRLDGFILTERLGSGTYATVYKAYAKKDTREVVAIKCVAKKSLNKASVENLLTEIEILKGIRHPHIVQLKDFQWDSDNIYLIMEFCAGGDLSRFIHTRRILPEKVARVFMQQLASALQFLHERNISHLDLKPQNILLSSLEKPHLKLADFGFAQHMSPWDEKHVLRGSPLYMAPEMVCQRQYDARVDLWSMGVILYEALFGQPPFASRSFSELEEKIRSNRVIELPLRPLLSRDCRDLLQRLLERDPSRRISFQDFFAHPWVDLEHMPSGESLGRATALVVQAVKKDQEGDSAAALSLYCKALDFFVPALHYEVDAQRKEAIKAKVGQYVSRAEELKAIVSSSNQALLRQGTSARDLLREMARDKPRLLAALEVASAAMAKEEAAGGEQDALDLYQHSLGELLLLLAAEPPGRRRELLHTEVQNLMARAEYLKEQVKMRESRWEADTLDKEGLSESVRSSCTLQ

[4] = biological target: T3, Dual specificity mitogen-activated protein kinase kinase 5 (Homo sapiens, UniProt Q13163)
T3 sequence (Q13163 whole entry): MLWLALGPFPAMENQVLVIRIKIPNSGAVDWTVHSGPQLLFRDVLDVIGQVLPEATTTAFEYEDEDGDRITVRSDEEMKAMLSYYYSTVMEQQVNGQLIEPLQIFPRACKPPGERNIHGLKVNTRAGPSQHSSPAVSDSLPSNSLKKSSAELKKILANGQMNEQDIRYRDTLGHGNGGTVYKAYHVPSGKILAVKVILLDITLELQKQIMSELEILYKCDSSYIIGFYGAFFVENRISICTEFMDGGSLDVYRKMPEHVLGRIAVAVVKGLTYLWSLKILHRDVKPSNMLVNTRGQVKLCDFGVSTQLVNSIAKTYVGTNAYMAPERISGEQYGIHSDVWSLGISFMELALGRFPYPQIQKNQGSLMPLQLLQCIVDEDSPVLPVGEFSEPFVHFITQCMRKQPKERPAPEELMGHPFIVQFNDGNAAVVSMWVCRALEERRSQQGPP

GTP-binding protein 4 = GTP-binding protein 4 (Homo sapiens, UniProt Q9BZE4)
Ephrin type-A receptor 5 = Ephrin type-A receptor 5 (Homo sapiens, UniProt P54756)
Sequence of Ephrin type-A receptor 5 (P54756 whole entry): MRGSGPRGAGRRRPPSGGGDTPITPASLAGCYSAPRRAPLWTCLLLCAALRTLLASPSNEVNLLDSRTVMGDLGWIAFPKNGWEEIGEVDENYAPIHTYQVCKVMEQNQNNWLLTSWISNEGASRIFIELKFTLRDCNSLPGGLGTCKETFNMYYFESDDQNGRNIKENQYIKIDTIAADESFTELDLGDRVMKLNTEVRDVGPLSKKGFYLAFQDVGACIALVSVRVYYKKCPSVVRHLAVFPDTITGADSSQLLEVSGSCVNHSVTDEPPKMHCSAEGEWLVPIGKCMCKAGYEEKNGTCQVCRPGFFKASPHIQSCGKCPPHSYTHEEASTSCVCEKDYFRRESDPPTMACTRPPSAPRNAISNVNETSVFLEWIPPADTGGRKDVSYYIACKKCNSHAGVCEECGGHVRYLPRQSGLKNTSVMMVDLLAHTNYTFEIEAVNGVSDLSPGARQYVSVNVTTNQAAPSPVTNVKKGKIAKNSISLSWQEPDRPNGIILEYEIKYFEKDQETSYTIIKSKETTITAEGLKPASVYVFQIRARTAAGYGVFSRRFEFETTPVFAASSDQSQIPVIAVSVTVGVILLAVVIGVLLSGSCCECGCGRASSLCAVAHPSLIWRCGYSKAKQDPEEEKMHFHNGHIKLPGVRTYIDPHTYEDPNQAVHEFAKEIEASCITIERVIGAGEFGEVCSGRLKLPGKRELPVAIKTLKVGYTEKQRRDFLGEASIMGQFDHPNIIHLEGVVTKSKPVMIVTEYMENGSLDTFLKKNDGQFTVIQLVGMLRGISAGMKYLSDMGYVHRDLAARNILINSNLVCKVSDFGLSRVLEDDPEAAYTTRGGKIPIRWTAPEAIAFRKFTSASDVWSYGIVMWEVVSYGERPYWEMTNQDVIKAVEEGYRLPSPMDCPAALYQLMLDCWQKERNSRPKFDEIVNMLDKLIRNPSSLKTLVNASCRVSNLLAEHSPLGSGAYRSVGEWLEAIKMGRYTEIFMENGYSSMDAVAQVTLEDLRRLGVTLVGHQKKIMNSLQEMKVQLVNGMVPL

[5] = biological target: T4, Serine/threonine-protein kinase 3 (Homo sapiens, UniProt Q13188)
T4 sequence (Q13188 whole entry): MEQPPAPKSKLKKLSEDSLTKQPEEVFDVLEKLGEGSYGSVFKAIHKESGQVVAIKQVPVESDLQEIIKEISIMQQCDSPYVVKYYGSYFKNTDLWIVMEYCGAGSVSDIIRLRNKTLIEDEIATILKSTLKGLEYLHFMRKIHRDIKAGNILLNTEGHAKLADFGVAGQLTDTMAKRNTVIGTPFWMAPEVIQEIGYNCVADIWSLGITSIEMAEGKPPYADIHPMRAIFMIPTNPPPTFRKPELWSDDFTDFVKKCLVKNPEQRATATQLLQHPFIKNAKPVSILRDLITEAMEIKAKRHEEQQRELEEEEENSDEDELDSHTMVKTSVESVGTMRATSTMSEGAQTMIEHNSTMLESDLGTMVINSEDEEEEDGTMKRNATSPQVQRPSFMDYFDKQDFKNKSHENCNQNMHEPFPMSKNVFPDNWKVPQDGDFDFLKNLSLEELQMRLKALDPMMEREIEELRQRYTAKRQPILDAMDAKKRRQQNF

[6] = biological target: T5, EKC/KEOPS complex subunit TP53RK (Homo sapiens, UniProt Q96S44)
T5 sequence (Q96S44 whole entry): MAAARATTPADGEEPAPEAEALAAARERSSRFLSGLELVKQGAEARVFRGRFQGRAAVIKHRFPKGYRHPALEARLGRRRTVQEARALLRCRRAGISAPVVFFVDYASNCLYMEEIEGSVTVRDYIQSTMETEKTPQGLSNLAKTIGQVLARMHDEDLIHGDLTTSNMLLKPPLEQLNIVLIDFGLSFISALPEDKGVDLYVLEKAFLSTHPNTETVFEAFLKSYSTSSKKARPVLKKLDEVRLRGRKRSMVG
Also: in the data inactive means no Kd found up to 30 µM.

Sequence of Tyrosine-protein kinase ABL2 (P42684 whole entry): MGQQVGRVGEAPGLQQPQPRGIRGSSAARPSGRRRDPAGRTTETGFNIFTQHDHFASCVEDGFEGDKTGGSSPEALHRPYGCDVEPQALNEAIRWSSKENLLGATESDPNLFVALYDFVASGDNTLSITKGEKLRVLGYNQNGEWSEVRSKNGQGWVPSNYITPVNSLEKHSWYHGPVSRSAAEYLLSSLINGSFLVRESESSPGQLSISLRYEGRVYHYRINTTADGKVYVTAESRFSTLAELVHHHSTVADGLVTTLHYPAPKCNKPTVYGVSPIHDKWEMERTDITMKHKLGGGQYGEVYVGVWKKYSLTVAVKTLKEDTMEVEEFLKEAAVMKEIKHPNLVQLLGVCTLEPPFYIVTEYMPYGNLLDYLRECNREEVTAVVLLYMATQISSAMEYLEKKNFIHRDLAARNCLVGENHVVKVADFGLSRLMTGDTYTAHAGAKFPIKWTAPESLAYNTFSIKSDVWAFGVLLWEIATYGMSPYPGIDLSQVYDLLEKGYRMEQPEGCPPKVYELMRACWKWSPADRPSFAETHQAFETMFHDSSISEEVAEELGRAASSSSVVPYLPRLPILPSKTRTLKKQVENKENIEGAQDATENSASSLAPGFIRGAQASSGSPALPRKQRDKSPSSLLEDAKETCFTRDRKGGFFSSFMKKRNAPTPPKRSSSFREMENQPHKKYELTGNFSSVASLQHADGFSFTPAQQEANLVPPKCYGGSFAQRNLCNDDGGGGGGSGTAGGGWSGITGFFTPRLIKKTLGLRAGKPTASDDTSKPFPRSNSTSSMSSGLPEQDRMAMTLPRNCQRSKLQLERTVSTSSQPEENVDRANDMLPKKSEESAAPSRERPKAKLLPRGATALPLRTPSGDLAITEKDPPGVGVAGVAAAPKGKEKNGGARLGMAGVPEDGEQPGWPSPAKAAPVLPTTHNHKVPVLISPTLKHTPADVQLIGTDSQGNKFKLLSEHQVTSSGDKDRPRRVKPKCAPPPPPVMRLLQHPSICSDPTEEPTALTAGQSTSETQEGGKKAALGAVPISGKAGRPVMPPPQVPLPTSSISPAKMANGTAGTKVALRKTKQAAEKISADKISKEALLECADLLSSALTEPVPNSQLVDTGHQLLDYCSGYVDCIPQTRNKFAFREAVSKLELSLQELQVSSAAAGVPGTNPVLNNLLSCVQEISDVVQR

Row | SMILES | Kd [1] | Kd [2] | Kd [3] | Kd [4] | Kd (GTP-binding protein 4) | Kd (Ephrin type-A receptor 5) | Kd [5] | Kd [6]
1 | CCS(=O)(=O)N1CC(CC#N)(n2cc(-c3ncnc4[nH]ccc34)cn2)C1 [BARICITINIB] | > 30 µM (inactive) | > 30 µM (inactive) | > 30 µM (inactive) | > 30 µM (inactive) | > 30 µM (inactive) | > 30 µM (inactive) | > 30 µM (inactive) | > 30 µM (inactive)
2 | Cc1cc2c(F)c(Oc3ncnn4cc(OC[C@@H](C)OC(=O)[C@H](C)N)c(C)c34)ccc2[nH]1 [BRIVANIB ALANINATE] | > 30 µM (inactive) | > 30 µM (inactive) | > 30 µM (inactive) | > 30 µM (inactive) | > 30 µM (inactive) | > 30 µM (inactive) | > 30 µM (inactive) | > 30 µM (inactive)
3 | CNC(=O)c1ccc(-c2cnc3ncc(Cc4ccc5ncccc5c4)n3n2)cc1F [CAPMATINIB] | > 30 µM (inactive) | > 30 µM (inactive) | > 30 µM (inactive) | > 30 µM (inactive) | > 30 µM (inactive) | > 30 µM (inactive) | > 30 µM (inactive) | > 30 µM (inactive)
4 | O=C(c1ccc(F)c(F)c1Nc1ccc(I)cc1F)N1CC(O)([C@@H]2CCCCN2)C1 [COBIMETINIB] | > 30 µM (inactive) | > 30 µM (inactive) | > 30 µM (inactive) | > 30 µM (inactive) | > 30 µM (inactive) | > 30 µM (inactive) | > 30 µM (inactive) | > 30 µM (inactive)
5 | CCc1cnn2c(NCc3ccc[n+]([O-])c3)cc(N3CCCC[C@H]3CCO)nc12 [DINACICLIB] | > 30 µM (inactive) | > 30 µM (inactive) | > 30 µM (inactive) | > 30 µM (inactive) | > 30 µM (inactive) | > 30 µM (inactive) | > 30 µM (inactive) | > 30 µM (inactive)
6 | COC(=O)N[C@@H](C)CNc1nccc(-c2cn(C(C)C)nc2-c2cc(Cl)cc(NS(C)(=O)=O)c2F)n1 [ENCORAFENIB] | > 30 µM (inactive) | > 30 µM (inactive) | > 30 µM (inactive) | > 30 µM (inactive) | > 30 µM (inactive) | > 30 µM (inactive) | > 30 µM (inactive) | > 30 µM (inactive)
7 | CO[C@H]1C[C@@H]2CC[C@@H](C)[C@@](O)(O2)C(=O)C(=O)N2CCCC[C@H]2C(=O)O[C@H]([C@H](C)C[C@@H]2CC[C@@H](OCCO)[C@H](OC)C2)CC(=O)[C@H](C)/C=C(\C)[C@@H](O)[C@@H](OC)C(=O)[C@H](C)C[C@H](C)/C=C/C=C/C=C/1C [EVEROLIMUS] | > 30 µM (inactive) | > 30 µM (inactive) | > 30 µM (inactive) | > 30 µM (inactive) | > 30 µM (inactive) | > 30 µM (inactive) | > 30 µM (inactive) | > 30 µM (inactive)
8 | O=C1NC(=O)/C(=C/c2ccc3nccc(-c4ccncc4)c3c2)S1 [GSK-1059615] | > 30 µM (inactive) | > 30 µM (inactive) | > 30 µM (inactive) | > 30 µM (inactive) | > 30 µM (inactive) | > 30 µM (inactive) | > 30 µM (inactive) | 0.058 µM (active)
9 | CC[C@H](Nc1ncnc2[nH]cnc12)c1nc2cccc(F)c2c(=O)n1-c1ccccc1 [IDELALISIB] | > 30 µM (inactive) | > 30 µM (inactive) | > 30 µM (inactive) | > 30 µM (inactive) | > 30 µM (inactive) | > 30 µM (inactive) | > 30 µM (inactive) | > 30 µM (inactive)
10 | Cn1cc(-c2ccc3nnc(C(F)(F)c4ccc5ncccc5c4)n3n2)cn1 [JNJ-38877605] | > 30 µM (inactive) | > 30 µM (inactive) | > 30 µM (inactive) | > 30 µM (inactive) | > 30 µM (inactive) | > 30 µM (inactive) | > 30 µM (inactive) | > 30 µM (inactive)
11 | COC(=O)[C@@]1(O)C[C@H]2O[C@]1(C)n1c3ccccc3c3c4c(c5c6ccccc6n2c5c31)C(=O)NC4 [K-252A] | > 30 µM (inactive) | > 30 µM (inactive) | 0.107 µM (active) | 2.03 µM (active) | > 30 µM (inactive) | > 30 µM (inactive) | 0.043 µM (active) | 3.84 µM (active)
12 | COc1cc2nccc(Oc3ccc(NC(=O)NC4CC4)c(Cl)c3)c2cc1C(N)=O [LENVATINIB] | > 30 µM (inactive) | > 30 µM (inactive) | > 30 µM (inactive) | 2.91 µM (active) | > 30 µM (inactive) | > 30 µM (inactive) | > 30 µM (inactive) | > 30 µM (inactive)
13 | Cc1c(F)cc(C(=O)NC2CC2)cc1-c1ccc(C(=O)NCC(C)(C)C)cn1 [LOSMAPIMOD] | > 30 µM (inactive) | > 30 µM (inactive) | > 30 µM (inactive) | > 30 µM (inactive) | > 30 µM (inactive) | > 30 µM (inactive) | > 30 µM (inactive) | > 30 µM (inactive)
14 | Cn1cc(-c2ccc(F)c(C(F)(F)F)c2)nc1C1CCN(c2ncnc3[nH]ncc23)CC1 [LY-2584702] | > 30 µM (inactive) | > 30 µM (inactive) | > 30 µM (inactive) | > 30 µM (inactive) | > 30 µM (inactive) | > 30 µM (inactive) | > 30 µM (inactive) | > 30 µM (inactive)
15 | O=C(O)[C@]1(Cc2cccc(Nc3nccs3)n2)CC[C@@H](Oc2cccc(Cl)c2F)CC1 [MK-5108] | 0.077 µM (active) | > 30 µM (inactive) | > 30 µM (inactive) | > 30 µM (inactive) | > 30 µM (inactive) | > 30 µM (inactive) | 2.27 µM (active) | > 30 µM (inactive)
16 | C1=C/COCc2cc(ccc2OCCN2CCCC2)Nc2nccc(n2)-c2cccc(c2)COC/1 [PACRITINIB] | > 30 µM (inactive) | > 30 µM (inactive) | > 30 µM (inactive) | > 30 µM (inactive) | > 30 µM (inactive) | > 30 µM (inactive) | > 30 µM (inactive) | > 30 µM (inactive)
17 | Cc1ccc(-n2nc(C(C)(C)C)cc2NC(=O)NCc2cc(F)ccc2Oc2ccc3c(cnn3CCO)c2)cc1 [PEXMETINIB] | 0.351 µM (active) | > 30 µM (inactive) | > 30 µM (inactive) | > 30 µM (inactive) | > 30 µM (inactive) | > 30 µM (inactive) | > 30 µM (inactive) | > 30 µM (inactive)
18 | OCCn1cc(-c2cnc3nnn(Cc4ccc5ncccc5c4)c3n2)cn1 [PF-04217903] | > 30 µM (inactive) | > 30 µM (inactive) | > 30 µM (inactive) | > 30 µM (inactive) | > 30 µM (inactive) | > 30 µM (inactive) | > 30 µM (inactive) | > 30 µM (inactive)
